Experimental data taken from patent US9376392B2, “2-(tert-butoxy)-2-(7-methylquinolin-6-yl) acetic acid derivatives for treating AIDS” (Gilead Sciences, Inc., priority 2012, dated 2016).

System: HIV-IIIb (MT-4 cells)
Experiment: Test A: Antiviral Assays in MT4 Cells
Format: cell-based
Settings: MT-4 cells infected with HIV-IIIb, 5 days of incubation, CellTiter-Glo readout
Experimental: The antiviral properties of a compound disclosed herein may be determined using Test A described below.
Test A: Antiviral Assays in MT4 Cells
For the antiviral assay utilizing MT-4 cells, 0.4 μL of […] test concentration of 3-fold serially diluted compound in DMSO was added to 40 μL of cell growth medium (RPMI 1640, 10% FBS, 1% penicillin/Streptomycin, 1% L-Glutamine, 1% HEPES) in each well of 384-well assay plates (10 concentrations) in quadruplicate.
1 mL aliquots of 2×10e6 MT-4 cells are pre-infected for 1 and 3 hrs respectively, @ 37° C. with 25 μL (MT4) or of either cell growth medium (mock-infected) or a fresh 1:250 dilution of an HIV-IIIb concentrated ABI stock (0.004 m.o.i. for MT4 cells). Infected and uninfected cells are diluted in cell growth medium and 35 μL of 2000 (for MT4) cells is added to each well of the assay plates.
Assay plates were then incubated in a 37° C. incubator. After 5 days of incubation, […] 2× concentrated CellTiter-Glo™ Reagent (catalog #G7573, Promega Biosciences, Inc., Madison, Wis.) was added to each well of the assay plate. Cell lysis was carried out by incubating at room temperature for 2-3 min and then chemiluminescence was read using the Envision reader (PerkinElmer).

Cc1cc2nc(OCc3cccc(S(C)(=O)=O)c3)ccc2c(-c2ccc3c4c(ccnc24)CCO3)c1[C@H](OC(C)(C)C)C(=O)O (atropisomer, axis not shown) [Example 4, (S)-2-tert-Butoxy-2-((R)-5-(2,3-dihydropyrano[4,3,2-de]quinolin-7-yl)-7-methyl-2-(3-(methylsulfonyl)benzyloxy)quinolin-6-yl)acetic acid]
EC50 (MT4, 120 h): 0.0136 µM

Cc1cc2nc(NC(=O)c3ccccc3)ccc2c(-c2ccc3c4c(ccnc24)CCO3)c1[C@H](OC(C)(C)C)C(=O)O (atropisomer, axis not shown) [Example 49, (S)-2-((R)-2-Benzamido-5-(2,3-dihydropyrano[4,3,2-de]quinolin-7-yl)-7-methylquinolin-6-yl)-2-tert-butoxyacetic acid]
EC50 (MT4, 120 h): 0.134 µM

CCCCCC(C)(C)O[C@H](C(=O)O)c1c(C)cc2nc(C)ccc2c1-c1ccc2c3c(ccnc13)CCO2 (atropisomer, axis not shown) [Example 43, (S)-2-((S)-5-(2,3-Dihydropyrano[4,3,2-de]quinolin-7-yl)-2,7-dimethylquinolin-6-yl)-2-(2-methylheptan-2-yloxy)acetic acid]
EC50 (MT4, 120 h): 39.4 µM

Cc1cc2nc(OCc3ccccc3OC(F)(F)F)ccc2c(-c2ccc3c4c(ccnc24)CCO3)c1[C@H](OC(C)(C)C)C(=O)O (atropisomer, axis not shown) [Example 19, (S)-2-tert-Butoxy-2-((R)-5-(2,3-dihydropyrano[4,3,2-de]quinolin-7-yl)-7-methyl-2-(2-(trifluoromethoxy)benzyloxy)quinolin-6-yl)acetic acid]
EC50 (MT4, 120 h): 0.07 µM

Cc1cc2c(ccc(=O)n2Cc2cccc(S(C)(=O)=O)c2)c(-c2ccc3c4c(ccnc24)CCO3)c1[C@H](OC(C)(C)C)C(=O)O (atropisomer, axis not shown) [Example 2, (S)-2-tert-Butoxy-2-((R)-5-(2,3-dihydropyrano[4,3,2-de]quinolin-7-yl)-7-methyl-1-(3-(methylsulfonyl)benzyl)-2-oxo-1,2-dihydroquinolin-6-yl)acetic acid]
EC50 (MT4, 120 h): 0.46 µM

Cc1cc2c(ccc(=O)n2Cc2cncc(C(F)(F)F)c2)c(-c2ccc3c4c(ccnc24)CCO3)c1[C@H](OC(C)(C)C)C(=O)O (atropisomer, axis not shown) [Example 31, (S)-2-tert-Butoxy-2-((R)-5-(2,3-dihydropyrano[4,3,2-de]quinolin-7-yl)-7-methyl-2-oxo-1-((5-(trifluoromethyl)pyridin-3-yl)methyl)-1,2-dihydroquinolin-6-yl)acetic acid]
EC50 (MT4, 120 h): 0.0682 µM

Cc1cc2c(ccc(=O)n2Cc2cnccn2)c(-c2ccc3c4c(ccnc24)CCO3)c1[C@H](OC(C)(C)C)C(=O)O (atropisomer, axis not shown) [Example 23, (S)-2-tert-Butoxy-2-((R)-5-(2,3-dihydropyrano[4,3,2-de]quinolin-7-yl)-7-methyl-2-oxo-1-(pyrazin-2-ylmethyl)-1,2-dihydroquinolin-6-yl)acetic acid]
EC50 (MT4, 120 h): 0.383 µM

CNc1ccc2c(-c3ccc4c5c(ccnc35)CCO4)c([C@H](OC(C)(C)C)C(=O)O)c(C)cc2n1 (atropisomer, axis not shown) [Example 46, (S)-2-tert-Butoxy-2-((R)-5-(2,3-dihydropyrano[4,3,2-de]quinolin-7-yl)-7-methyl-2-(methylamino)quinolin-6-yl)acetic acid]
EC50 (MT4, 120 h): 0.265 µM

Cc1cc2c(ccc(=O)n2CC2CC2)c(-c2ccc3c4c(ccnc24)CCO3)c1[C@H](OC(C)(C)C)C(=O)O (atropisomer, axis not shown) [Example 1, (S)-2-tert-Butoxy-2-((R)-1-(cyclopropylmethyl)-5-(2,3-dihydropyrano[4,3,2-de]quinolin-7-yl)-7-methyl-2-oxo-1,2-dihydroquinolin-6-yl)acetic acid]
EC50 (MT4, 120 h): 0.409 µM

Cc1cc2c(ccc(=O)n2Cc2cccc(C(F)F)c2)c(-c2ccc3c4c(ccnc24)CCO3)c1[C@H](OC(C)(C)C)C(=O)O (atropisomer, axis not shown) [Example 30, (S)-2-tert-Butoxy-2-((R)-1-(3-(difluoromethyl)benzyl)-5-(2,3-dihydropyrano[4,3,2-de]quinolin-7-yl)-7-methyl-2-oxo-1,2-dihydroquinolin-6-yl)acetic acid]
EC50 (MT4, 120 h): 0.0347 µM

Cc1cc2nc(OCc3ccc(S(C)(=O)=O)cc3)ccc2c(-c2ccc3c4c(ccnc24)CCO3)c1[C@H](OC(C)(C)C)C(=O)O (atropisomer, axis not shown) [Example 9, (S)-2-tert-Butoxy-2-((R)-5-(2,3-dihydropyrano[4,3,2-de]quinolin-7-yl)-7-methyl-2-(4-(methylsulfonyl)benzyloxy)quinolin-6-yl)acetic acid]
EC50 (MT4, 120 h): 0.0212 µM

Cc1cc2c(ccc(=O)n2Cc2ccncc2)c(-c2ccc3c4c(ccnc24)CCO3)c1[C@H](OC(C)(C)C)C(=O)O (atropisomer, axis not shown) [Example 21, (S)-2-tert-Butoxy-2-((R)-5-(2,3-dihydropyrano[4,3,2-de]quinolin-7-yl)-7-methyl-2-oxo-1-(pyridin-4-ylmethyl)-1,2-dihydroquinolin-6-yl)acetic acid]
EC50 (MT4, 120 h): 0.755 µM

Cc1cc2c(ccc(=O)n2-c2cccc(S(C)(=O)=O)c2)c(-c2ccc3c4c(ccnc24)CCO3)c1[C@H](OC(C)(C)C)C(=O)O (atropisomer, axis not shown) [Example 37, (S)-2-tert-Butoxy-2-((R)-5-(2,3-dihydropyrano[4,3,2-de]quinolin-7-yl)-7-methyl-1-(3-(methylsulfonyl)phenyl)-2-oxo-1,2-dihydroquinolin-6-yl)acetic acid]
EC50 (MT4, 120 h): 8.43 µM

Cc1cc2nc(OCc3ccccc3)ccc2c(-c2ccc3c4c(ccnc24)CCO3)c1[C@H](OC(C)(C)C)C(=O)O (atropisomer, axis not shown) [Example 12, (S)-2-((R)-2-(Benzyloxy)-5-(2,3-dihydropyrano[4,3,2-de]quinolin-7-yl)-7-methylquinolin-6-yl)-2-tert-butoxyacetic acid]
EC50 (MT4, 120 h): 0.05 µM

Cc1cc2c(ccc(=O)n2Cc2ccc(OC(F)(F)F)cc2)c(-c2ccc3c4c(ccnc24)CCO3)c1[C@H](OC(C)(C)C)C(=O)O (atropisomer, axis not shown) [Example 16, (S)-2-tert-Butoxy-2-((R)-5-(2,3-dihydropyrano[4,3,2-de]quinolin-7-yl)-7-methyl-2-oxo-1-(4-(trifluoromethoxy)benzyl)-1,2-dihydroquinolin-6-yl)acetic acid]
EC50 (MT4, 120 h): 1.61 µM

CCC(C)(CC)O[C@H](C(=O)O)c1c(C)cc2nc(C)ccc2c1-c1ccc2c3c(ccnc13)CCO2 (atropisomer, axis not shown) [Example 42, (S)-2-((S)-5-(2,3-Dihydropyrano[4,3,2-de]quinolin-7-yl)-2,7-dimethylquinolin-6-yl)-2-(3-methylpentan-3-yloxy)acetic acid]
EC50: 5.63 µM

Cc1cc2nc(OCc3cccc(C(F)(F)F)c3)ccc2c(-c2ccc3c4c(ccnc24)CCO3)c1[C@H](OC(C)(C)C)C(=O)O (atropisomer, axis not shown) [Example 3, (S)-2-tert-Butoxy-2-((R)-5-(2,3-dihydropyrano[4,3,2-de]quinolin-7-yl)-7-methyl-2-(3-(trifluoromethyl)benzyloxy)quinolin-6-yl)acetic acid]
EC50 (MT4, 120 h): 0.123 µM
